From US20080227806A1, “Novel Drugs for Dementia” (AMERICAN LIFE SCIENCE PHARMACEUTICALS, priority 2005, published 2008)
Values joined by “and” are separate entries in the source; they are usually repeats but may differ in a detail not shown here. Equal entries are not always repeated.

Tests used:
[1] = tested on: hippocampus neurons; conditions: primate ischemic animal model; cited from earlier work
[2] = tested on: total Aβ (Ab40 and Ab42); test: Brain total Aβ by ELISA after icv infusion into guinea pig brains; assay type: in vivo; conditions: constant icv infusion, 1 mg/ml
From the text: (§1) In vivo icv administration of protease inhibitors into guinea pig brains. Guinea pigs (Harley strain, 300-500 grams) were obtained from Charles River (Wilmington, Mass.). The animals were given free access to food and water before and during the experiment. An ALZET osmotic mini-pump (ALZET company, Cupertino, Calif.) was implanted subcutaneously in the mid-scapular area of the back of each animal. A catheter was connected to the osmotic mini-pump and inserted into the lateral ventricle of the brain (using a brain infusion kit manufactured by ALZET).
(§2) E64d or CA074Me (from CalBiochem, San Diego, Calif.) were each administered to guinea pig brains by icv minipump infusion at a rate of […] with each compound at 1 mg/ml in saline (with 1.5% DMSO). Each e64d and control group consisted of five animals; each CA074Me and control group consisted of ten animals. Continuous infusion was conducted for 7 days and 30 days. At the end of each infusion period, animals were sacrificed and half the brain was prepared as extracts for ELISA measurement of Aβ peptide levels conducted in triplicate with Ab ELISAs (from Biosource International). The other half brain was used for isolation of synaptosome preparations and Ab analyses.
(§3) Brain Extracts. Brain extracts were prepared by subjecting fresh tissues to homogenization at 1:10 w/v in guanidine buffer consisting of 5 M guanidine-HCl in 50 mM Tris-HCl, pH 8.3 (buffer reagents from Sigma-Aldrich, St. Louis, Mo.). Homogenates were agitated at room temperature for 3-4 hours, then stored at −20° C. The day before the ELISA assay, the tissue samples were diluted further by 1:10 for a final guanidine concentration of 0.5 M. These diluted homogenates were then centrifuged at 14,000 rpm for 20 minutes at 4° C. and supernatants were collected for measurement of total Ab, and Aβ40 and Aβ42 separately, by ELISA assay. Isolation of synaptosomes from brain. Synaptosomes were prepared by homogenization of fresh brain tissue in isotonic sucrose (320 mM), pH 7.4, 1 mM EDTA, 0.25 mM dithiothreitol, and 30 U/ml RNAse inhibitor. […] For quantitation of Aβ peptides, ELISA assays were used to measure Aβ levels. […] CTFβ fragments derived from APP were analyzed by western blots with antibody MAB 1560 (Chemicon, Temecula, Calif.). The sAPPα fragment derived from APP was analyzed by western blots with antibody MAB 343 (Chemicon, Temecula, Calif.). […]
(§4) Data Analyses. Data were analyzed by one-way analysis of variance for analyses of statistical significance of the effects of compounds on Ab levels, with p<0.05 indicating statistical significance, using GraphPad Prism software program. Following ANOVA analyses among treatment groups, individual group values for Ab levels were analyzed using Dunnett's multiple comparison test. […]

[3] = tested on: Aβ40; test: Brain Aβ40 by specific ELISA after icv infusion; assay type: in vivo; conditions: guinea pig, 7 days
From the text: as §1, with “ALZET). […]” for “ALZET).”
(§5) Brain Extracts. […] For quantitation of Aβ peptides, ELISA assays were used to measure Aβ levels. […] CTFβ fragments derived from APP were analyzed by western blots with antibody MAB 1560 (Chemicon, Temecula, Calif.). The sAPPα fragment derived from APP was analyzed by western blots with antibody MAB 343 (Chemicon, Temecula, Calif.). […]
as §4

[4] = tested on: CTFβ; test: Brain CTFβ by western blot densitometry after icv infusion; assay type: in vivo; conditions: guinea pig, 7 days, densitometric scanning of western blots
From the text: as §1, with “ALZET). […]” for “ALZET).”
as §5, §4

[5] = tested on: synaptosome Aβ; test: Synaptosome total Aβ by ELISA after icv infusion; assay type: in vivo; conditions: guinea pig
From the text: as §1, §2, §3, §4

[6] = tested on: sAPPα; test: Brain sAPPα by western blot densitometry after icv infusion; assay type: in vivo; conditions: guinea pig, 7 days, densitometric scanning of western blots
From the text: as §1, with “ALZET). […]” for “ALZET).”
as §5, §4

[7] = tested on: Aβ42; test: Brain Aβ42 by specific ELISA after icv infusion; assay type: in vivo; conditions: guinea pig, 7 days
From the text: as §1, with “ALZET). […]” for “ALZET).”
as §5, §4

[8] = rats, high dose; cited from earlier work
[9] = Phase III study; cited from earlier work
[10] = Japan; cited from earlier work

| SMILES | protection of brain neurons during ischemia [1] | reduction of brain total Aβ relative to control ([2]; 7 days) | reduction of brain total Aβ relative to control ([2]; 30 days) | reduction of Aβ40 in brain extracts [3] | reduction in brain CTFβ relative to controls [4] | reduction of synaptosome Aβ relative to controls ([5]; 7 days) | reduction of synaptosome Aβ relative to controls ([5]; 30 days) | increase in brain sAPPα above control [6] | reduction of Aβ42 in brain [7] | liver toxicity [8] | efficacy for muscular dystrophy [9] | Phase I clinical trial outcome [10] |
| --- | --- | --- | --- | --- | --- | --- | --- | --- | --- | --- | --- | --- |
| CCCNC(=O)C1OC1C(=O)NC(C(=O)N1CCCC1C(=O)O)C(C)CC (centres unmarked) [CA074, 1-{3-methyl-2-[(3-propylcarbamoyl-oxiranecarbonyl)-amino]-pentanoyl}-pyrrolidine-2-carboxylic acid] | protect hippocampus neurons from damage | – | – | – | – | – | – | – | – | – | – | – |
| CCCNC(=O)[C@H]1O[C@@H]1C(=O)N[C@H](C(=O)N1CCC[C@H]1C(=O)OC)[C@@H](C)CC [CA074Me, L-Proline, N[[(2S,3S)3[(propylamino)carbonyl]oxiranyl]carbonyl]-L-isoleucyl-, methyl ester] | – | 57% | 62% | 47% | 45% and 44% | 62% | 74% | 60% | 56% | – | – | – |
| CCOC(=O)[C@H]1O[C@@H]1C(=O)N[C@@H](CC(C)C)C(=O)NCCC(C)C [E64d, oxiranecarboxylic acid, 3-[[[(1S)-3-methyl-1-[[(3-methylbutyl)amino]carbonyl]butyl]amino]carbonyl], ethyl ester] | – | 31% | 55% | – | – | 27% | 50% | – | – | liver toxicity was found | low efficacy for muscular dystrophy | successfully passed Phase I clinical trials |
| CC(C)CCNC(=O)C(CC(C)C)NC(=O)C1OC1C(=O)O (centres unmarked) [e64c, 3-[3-methyl-1-(3-methyl-butylcarbamoyl)-butylcarbamoyl]-oxirane-2-carboxylic acid] | protect hippocampus neurons from damage | – | – | – | – | – | – | – | – | – | – | – |
